Results taken from publication PMC13233288, “Spider venom peptides Ht1a and Gg1a are toxic to honeybee parasite Varroa destructor by topical application” (npj Drug Discovery, 2026).
Entries after “also recorded” stand apart in the source; their conditions may differ. No end group written: not given here.

Columns and labels:
V. destructor mites = assay: Topical application of synthetic peptides and oxalic acid to V. destructor mites; type: in vivo, Varroa destructor; settings: 0.48 μg/mite in 0.5% Silwet (v/v); for earliest onset of mortality: 2-hourly recording between 0 and 48 h; for survival/mortality of V. destructor: n = 5 mites per group, up to 48 h, vs 0.5% Silwet control, two-way ANOVA, Dunnett
Experimental: An outline of the project discovery pipeline is presented in Supplementary Fig. 1. To identify varroacidal venom peptides, we screened venoms for activity against V. destructor by topical application. Topical tests were performed in several stages. First, whole venom was tested to determine mortality for V. destructor. Hit venoms were then subjected to several fractionation steps to isolate the active compounds. For the initial venom screen, a panel of 50 arthropod venoms (Table 1) were topically applied to V. destructor mites. Venoms were dissolved in 90% acetonitrile (v/v), and a 10 μg venom aliquot was applied per mite (n = 5 mites per venom). The dorsal plate of V. destructor mites (average mass 0.38 mg) was fixed to adhesive tape (ScotchTM 666 3 M; 19 × 32.9 mm, double sided) on microscope slides (ground edges 90° frosted end, 76 × 26 mm). A Nanoject II (Automatic Injector with Glass Capillaries, Drummond Cat.No. 3-000-205 A) was used for topical application of venom and control (90% acetonitrile) solutions. To accelerate solvent evaporation, the total volume of 483 nL was applied in seven aliquots of 69 nL each to the ventral plate of the mites between the posterior pair of legs. Each drop was allowed to dry before applying the next one, with the entire application procedure taking up to 1 h. Mite mortality was determined at various time intervals up to 48 h after the treatment using an Olympus stereomicroscope (SZX10/SZX2 Series). Initially, each mite was examined for movements of the legs, and immobile mites were stimulated with the tip of a wooden toothpick. Detection of static electricity by the mites, a few millimetres before the actual contact with the toothpick, was usually sufficient to trigger movement in mites that were still alive. […] At the later stage of the project, the slides with mites were placed into a self-constructed automated video monitoring system (using a USB camera) that employs an algorithm in OpenCV to subtract images from subsequent frames enabling the detection of changes in pixel intensity due to movements, for example of the extremities. Leg movements were stimulated with an air current applied over the mites at the time of image acquisition to determine mite mortality. The percentage of mite mortality for each venom was calculated at 2, 6 and 24 h, and adjusted by correcting for the mortality of the corresponding control group receiving only 90% acetonitrile.
The same procedure initially used for identifying varroacidal venoms was used for testing the topical activity of sHt1a and sGg1a. The peptides were dissolved in 0.5% Silwet L-77 (v/v), a silicone-based surfactant that is commonly used as a spreading agent for foliar sprays. 0.48 μg of peptide was topically applied to each mite, with n = 5 mites per treatment group. The activity of the sHt1a was confirmed using three cohorts of n = 5 mites, whereas the activity of sGg1a was confirmed using four cohorts of n = 5 mites. As a negative control, an equal volume of 0.5% Silwet (v/v) was topically applied (four cohorts of n = 5 mites), and 3% oxalic acid, a known varroacide used in commercial products[10] was used as positive control (eight cohorts of n = 5 mites). Mite mortality was recorded at 2-hourly intervals between 0 and 48 h after the treatment. For statistical analysis, mite survival data were plotted in Prism 10.0 (GraphPad Software, CA, USA), then a two-way ANOVA followed by Dunnett’s multiple comparisons test was performed, comparing the peptide and oxalic acid treatment against the respective 0.5% Silwet (v/v) control group data.

hNaV1.4 = assay: Automated whole-cell patch clamp, hNaV1.4 + β1 in HEK 293 cells; type: cell-based, human; settings: 3 μM, 50 ms pulse to −20 mV from −90 mV, ECS with 0.1% BSA, at least 2 min
Experimental: To examine for off-target activity on mammalian ion channels and receptors, we first tested the activity of sHt1a and Gg1a against human NaV channels. Whole-cell patch-clamp recordings were performed on Human Embryonic Kidney (HEK) 293 cells stably expressing human NaV1.4 or NaV1.5 in conjunction with the β1 subunit (SB Drug Discovery, Glasgow, United Kingdom) using a QPatch II automated electrophysiology platform (Sophion Bioscience, Ballerup, Denmark). Whole-cell currents were filtered at 8 kHz and acquired at 25 kHz. The linear leak was corrected by P/4 subtraction (leak potential −90 mV, leak sweep amplitude 10%). Series resistance across recorded cells ranged between 5 and 10 MΩ. The extracellular solution (ECS) consisted of (in mM): 145 NaCl, 4 KCl, 2 CaCl2, 1 MgCl2, 10 HEPES, and 10 glucose, adjusted to pH 7.4 with NaOH and to 305 mOsm/L with sucrose. The intracellular solution (ICS) consisted of (in mM): 140 CsF, 1 EGTA, 5 CsOH, 10 HEPES, and 10 NaCl, adjusted to pH 7.3 with CsOH and 320 mOsm/L with sucrose. Currents were elicited from a holding potential of −90 mV delivered with a 50 ms depolarising pulse to −20 mV every 20 s (0.05 Hz). Peptides were diluted in ECS containing 0.1% BSA and applied to cells for at least 2 min at the concentrations stated. Peak currents were normalised to the buffer control.

| Substance | earliest onset of mortality (V. destructor mites) [h] | survival/mortality of V. destructor (V. destructor mites) | survival/mortality of V. destructor (V. destructor mites; listed as sHt1a) | effect on hNaV1.4 currents (hNaV1.4) | effect on hNaV1.4 currents (hNaV1.4; listed as sHt1a) | survival/mortality of V. destructor (V. destructor mites; listed as sGg1a) | effect on hNaV1.4 currents (hNaV1.4; listed as sGg1a) |
| --- | --- | --- | --- | --- | --- | --- | --- |
| KYCAPRKAVCNTPADCCDKSSRCAYPNYGLGYYLDSEFFGKRKICSWRL (also: bicyclic or more (positions not given here)) [Ht1a, μ-gradutoxin-Ht1a] | 34 | induced topical mortality; also recorded: reduced varroa mite but not honeybee survival; also recorded: lethal to varroa mites | significantly reduced the survival; also recorded: significantly reduced V. destructor survival | inactive | did not significantly affect |  |  |
| U1-macrothelitoxin-Gg1a | 16 | induced topical mortality; also recorded: reduced varroa mite but not honeybee survival; also recorded: lethal to varroa mites |  | inactive |  | significantly reduced the survival; also recorded: significantly reduced V. destructor survival | did not significantly affect |
